{"source": "patent US11813070B2", "about": "“Apparatus for measuring pressure changes in stomach” (VIPUN Medical NV, priority 2017, dated 2023)", "key": {"healthy subjects [1]": {"test_system": "healthy subjects", "test": "Gastric emptying rate by 13C-octanoic acid breath test (GET½) after codeine or placebo", "format": "in vivo, human", "details": "inflated balloon (200 ml), 60 mg codeine as syrup, single dose, n=6", "method": "The study was designed as a randomized crossover study with 4 groups was (see schematic 14): • 20 ml balloon—placebo • 20 ml balloon—codeine • 200 ml balloon—placebo • 200 ml balloon—codeine\nThe volunteers received either placebo or codeine as a syrup. After positioning the balloon catheter the balloon was filled with 50 ml for 10 minutes, hereafter the balloon was inflated to 200 ml of deflated to 20 ml depending on the treatment arm. After this and in total 20 minutes after syrup ingestion 150 ml of a nutrient drink (Nutridrink, Nutricia (NL)) was directly infused into the stomach at a constant speed of 75 ml/hour. […]\nGastric emptying rate was measured using the ^13C-octanoic acid breath test (11). ^13C-labeled octanoic acid was solved in the nutrient drink (0.5 mg/ml). Emptying of the stomach was assessed by analysis of the exhaled ^13CO2, after oxidation of octanoic acid in the liver. […]\n2) Gastric emptying (breath test). The ratio of ^13CO2 to ^12CO2 (molar mass 45 and 44 gr/mol) in the breath samples collected was measured by isotope ratio mass spectrometry (IRMS; ABCA, Sercon, Crewe, UK). As described before (12) a ^13C recovery rate per hour (% dosage per hour) was calculated per sample taking into account that the total dosage ^13C was administered over 2 hours. […]"}, "healthy subjects [2]": {"test_system": "healthy subjects", "test": "Gastric motility measured as intragastric balloon pressure (motility index, MI) after codeine or placebo", "format": "in vivo, human", "details": "60 mg codeine as syrup, single dose, n=6", "source_text": "The example explored the potential of a balloon with the optimal balloon size as determined in examples 1 and the optimal balloon material characteristics as determined in examples 2. More specifically the aim was 3-fold: • To investigate whether the nasogastric balloon catheter can be used to detect (codeine-induced) decreased gastric motility. • To investigate the correlation between gastric motility and gastric emptying changes after codeine treatment. • To investigate whether the presence of an inflated intragastric balloon influences gastric motility and emptying.\n6 healthy subjects were recruited for this study. […] Subjects were asked to come to the clinic after at least 6 hours fasting, none of the subjects were taking any medication apart from contraception pills. […]\nThe 20 ml balloon experiments served as a control for the 200 ml balloon experiments since the effect of a 200 ml balloon on gastric motility and emptying is unknown. Gastric motility was assessed with a double lumen balloon catheter as described below by measuring the pressure in the balloon with an external pressure sensor. […]\nCustomized computer software (Pharmlab 5.0; AstraZeneca R&D, Mölndal, Sweden) was used to record pressure as mmHg at 1 Hz. […] The baseline was calculated as follows: […]"}}, "note": "Entries after “also recorded” stand apart in the source; their conditions may differ.", "data": [{"compound": "COc1ccc2c3c1O[C@H]1[C@@H](O)C=C[C@H]4[C@@H](C2)N(C)CC[C@@]341", "note": "[codeine]", "values": [{"measurement": "gastric half emptying time (GET½), codeine vs. placebo", "setting": "healthy subjects [1]", "value": "GET½ increased; also recorded: significant treatment effect (P<0.05); also recorded: increased GET½; also recorded: delayed gastric emptying"}, {"measurement": "gastric half emptying time (GET½), codeine vs. placebo", "setting": "healthy subjects [1]; listed as Codeine", "value": "delayed gastric emptying"}, {"measurement": "gastric contractility expressed as motility index (MI), codeine vs. placebo", "setting": "healthy subjects [2]; deflated balloon (20 ml)", "value": "did not significantly affect MI; also recorded: no effect of treatment; also recorded: No effect of codeine on motility could be detected"}, {"measurement": "gastric contractility expressed as motility index (MI), codeine vs. placebo", "setting": "healthy subjects [2]; inflated balloon (200 ml)", "value": "significant effect on MI (P<0.01); also recorded: motility was always decreased; also recorded: significant treatment effect (P<0.01); also recorded: decreased MI; also recorded: significantly decreased gastric motility"}]}]}
